PubChem BioAssay AID1259407 (Chemical Carcinogenesis Research Information System (CCRIS), 2018)
The source made the active and inactive calls. How the calls were made is not given here.

Test system: CCRIS mutagenicity, Ames/micronucleus/aberration tests
Test: CCRIS mutagenicity studies
[1] = Test System: AMES SALMONELLA TYPHIMURIUM, Strain/Indicator: TA98, Metabolic Activation: NONE, Method: PREINCUBATION
[2] = Test System: AMES SALMONELLA TYPHIMURIUM, Strain/Indicator: TA100, Metabolic Activation: NONE, Method: STANDARD PLATE
[3] = Test System: AMES SALMONELLA TYPHIMURIUM, Strain/Indicator: TA1535, Metabolic Activation: NONE, Method: STANDARD PLATE
[4] = Test System: AMES SALMONELLA TYPHIMURIUM, Strain/Indicator: TA98, Metabolic Activation: NONE, Method: STANDARD PLATE
[5] = Test System: AMES SALMONELLA TYPHIMURIUM, Strain/Indicator: TA100, Metabolic Activation: NONE, Method: PREINCUBATION

Cc1c(N)ccc(N=Nc2ccccc2)c1N
mutagenic call (Test System: AMES SALMONELLA TYPHIMURIUM, Strain/Indicator: TA100, Metabolic Activation: HUMAN, LIVER, S-9, Method: PREINCUBATION): active; positive
mutagenic call (Test System: AMES SALMONELLA TYPHIMURIUM, Strain/Indicator: TA100, Metabolic Activation: RAT, LIVER, S-9, BETA-NAPHTHOFLAVONE, Method: PREINCUBATION): active; positive
mutagenic call (Test System: AMES SALMONELLA TYPHIMURIUM, Strain/Indicator: TA100, Metabolic Activation: RAT, LIVER, S-9, PHENOBARBITAL, Method: PREINCUBATION): active; positive
mutagenic call (Test System: AMES SALMONELLA TYPHIMURIUM, Strain/Indicator: TA100, Metabolic Activation: RAT, LIVER, S-9, Method: PREINCUBATION): active; positive
mutagenic call (Test System: UDS RODENT HEPATOCYTES, Strain/Indicator: THY INCORP, Metabolic Activation: NONE, Method: AUTORADIOGRAPHY): active; positive

O=[N+]([O-])c1ccc2c(c1)sc1ccccc12
mutagenic call (Test System: AMES SALMONELLA TYPHIMURIUM, Strain/Indicator: TA98(1,8-DNP6), Metabolic Activation: NONE, Method: PREINCUBATION): active; positive
mutagenic call (Test System: AMES SALMONELLA TYPHIMURIUM, Strain/Indicator: TA98(NR), Metabolic Activation: NONE, Method: PREINCUBATION): active; positive
mutagenic call (Test System: AMES SALMONELLA TYPHIMURIUM, Strain/Indicator: TA98(NR), Metabolic Activation: RAT LIVER S-9, 3-METHYLCHOLANTHRENE (10%), Method: PREINCUBATION): active; positive
mutagenic call [1]: active; positive

CS(=O)(=O)OC[C@H](O)[C@@H](O)COS(C)(=O)=O
mutagenic call [2]: active; positive
mutagenic call [3]: active; positive
mutagenic call (Test System: AMES SALMONELLA TYPHIMURIUM, Strain/Indicator: TA7004, Metabolic Activation: NONE, Method: STANDARD PLATE): active; positive
mutagenic call (Test System: AMES SALMONELLA TYPHIMURIUM, Strain/Indicator: TA7005, Metabolic Activation: NONE, Method: STANDARD PLATE): inactive; negative
mutagenic call (Test System: CHINESE HAMSTER OVARY, Strain/Indicator: AS52/6-THIOGUANINE, Metabolic Activation: NONE): active; positive

CC1(OO)c2ccccc2-c2ccccc21
mutagenic call [4]: active; positive
mutagenic call (Test System: AMES SALMONELLA TYPHIMURIUM, Strain/Indicator: TA98, Metabolic Activation: RAT, LIVER, S-9, AROCLOR 1254, Method: STANDARD PLATE): active; positive
mutagenic call [2]: active; positive
mutagenic call (Test System: AMES SALMONELLA TYPHIMURIUM, Strain/Indicator: TA100, Metabolic Activation: RAT, LIVER, S-9, AROCLOR 1254, Method: STANDARD PLATE): active; positive

CNc1ccc2ncc(C)nc2c1C
mutagenic call [1]: inactive; negative
mutagenic call (Test System: AMES SALMONELLA TYPHIMURIUM, Strain/Indicator: TA98, Metabolic Activation: RAT, LIVER, S-9, PCB, Method: PREINCUBATION): active; positive
mutagenic call [5]: inactive; negative
mutagenic call (Test System: AMES SALMONELLA TYPHIMURIUM, Strain/Indicator: TA100, Metabolic Activation: RAT, LIVER, S-9, PCB, Method: PREINCUBATION): active; positive

CC1(C)COCN1
mutagenic call (End Point: In vitro chromosomal aberrations, Test System: Chinese hamster ovary (CHO) cells, Metabolic Activation: None): active; positive
mutagenic call (End Point: In vitro chromosomal aberrations, Test System: Chinese hamster ovary (CHO) cells, Metabolic Activation: S-9): active; positive
mutagenic call (Test System: Mouse lymphoma, Strain/Indicator: L5178Y (TK+/TK-), Metabolic Activation: None, Method: Not specified by DPR): active; positive (purity 78%)
mutagenic call (Test System: Mouse lymphoma, Strain/Indicator: L5178Y (TK+/TK-), Metabolic Activation: S-9, Method: Not specified by DPR): active; positive (purity 78%)

S=P(N1CC1)(N1CC1)N1CC1
mutagenic call (Test System: AMES SALMONELLA TYPHIMURIUM, Strain/Indicator: TA98, Metabolic Activation: HAMSTER, LIVER, S-9, AROCLOR 1254 (30%), Method: PREINCUBATION): inactive; negative
mutagenic call [1]: inactive; negative
mutagenic call [4]: inactive; negative
mutagenic call (Test System: AMES SALMONELLA TYPHIMURIUM, Strain/Indicator: TA98, Metabolic Activation: RAT, LIVER, S-9, AROCLOR 1254 (30%), Method: PREINCUBATION): inactive; negative
mutagenic call (Test System: AMES SALMONELLA TYPHIMURIUM, Strain/Indicator: TA100, Metabolic Activation: HAMSTER, LIVER, S-9, AROCLOR 1254 (30%), Method: PREINCUBATION): active; positive
mutagenic call [5]: active; positive
mutagenic call [2]: active; positive
mutagenic call (Test System: AMES SALMONELLA TYPHIMURIUM, Strain/Indicator: TA100, Metabolic Activation: RAT, LIVER, S-9, AROCLOR 1254 (30%), Method: PREINCUBATION): active; positive
mutagenic call [3]: active; positive
mutagenic call (Test System: AMES SALMONELLA TYPHIMURIUM, Strain/Indicator: TA1537, Metabolic Activation: NONE, Method: STANDARD PLATE): inactive; negative
mutagenic call (Test System: CHINESE HAMSTER V-79, Strain/Indicator: V-79/6-THIOGUANINE, Metabolic Activation: NONE, Method: FLASK ASSAY): inactive; negative
mutagenic call (Test System: E. COLI, Strain/Indicator: WP2 (HCR), Metabolic Activation: NONE, Method: STANDARD PLATE): active; positive

Cc1ccc(N=Nc2c(O)ccc3ccccc23)c([N+](=O)[O-])c1
mutagenic call (Test System: AMES SALMONELLA TYPHIMURIUM, Strain/Indicator: TA98, Metabolic Activation: HAMSTER, LIVER, S-9, AROCLOR 1254 (10%), Method: PREINCUBATION): active; positive
mutagenic call [1]: inactive; negative
mutagenic call (Test System: AMES SALMONELLA TYPHIMURIUM, Strain/Indicator: TA98, Metabolic Activation: RAT, LIVER, S-9, AROCLOR 1254 (10%), Method: PREINCUBATION): inactive; negative
mutagenic call (Test System: AMES SALMONELLA TYPHIMURIUM, Strain/Indicator: TA100, Metabolic Activation: HAMSTER, LIVER, S-9, AROCLOR 1254 (10%), Method: PREINCUBATION): active; positive
mutagenic call [5]: inactive; negative
mutagenic call (Test System: AMES SALMONELLA TYPHIMURIUM, Strain/Indicator: TA1535, Metabolic Activation: HAMSTER, LIVER, S-9, AROCLOR 1254 (10%), Method: PREINCUBATION): inactive; negative
mutagenic call (Test System: AMES SALMONELLA TYPHIMURIUM, Strain/Indicator: TA1535, Metabolic Activation: NONE, Method: PREINCUBATION): inactive; negative
mutagenic call (Test System: AMES SALMONELLA TYPHIMURIUM, Strain/Indicator: TA1535, Metabolic Activation: RAT, LIVER, S-9, AROCLOR 1254 (10%), Method: PREINCUBATION): inactive; negative
mutagenic call (Test System: AMES SALMONELLA TYPHIMURIUM, Strain/Indicator: TA1537, Metabolic Activation: HAMSTER, LIVER, S-9, AROCLOR 1254 (10%), Method: PREINCUBATION): inactive; negative
mutagenic call (Test System: AMES SALMONELLA TYPHIMURIUM, Strain/Indicator: TA1537, Metabolic Activation: NONE, Method: PREINCUBATION): inactive; negative
mutagenic call (Test System: AMES SALMONELLA TYPHIMURIUM, Strain/Indicator: TA1537, Metabolic Activation: RAT, LIVER, S-9, AROCLOR 1254 (10%), Method: PREINCUBATION): inactive; negative
